Common to all, as to type: in vivo
Assay [1] concerns Alopecurus myosuroides (ALOMY). The assay can be described thus: Herbicidal pre-emergence action, section A (Table A2). Particulars: visual grading after ca. 3 weeks vs untreated controls. The gist of the method:
(§1)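 In this greenhouse test, sown seeds under soil cover received the compounds as suspensions or emulsions, with 0.5% additive, at 600 l water/ha before emergence. Damage was assessed by eye after about 3 weeks, compared with untreated controls.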

For assay [2], the system named is Digitaria sanguinalis (DIGSA). The assay can be described thus: Herbicidal pre-emergence action, section C (Table C12). The settings on record: visual grading after ca. 3 weeks. In outline: (§2)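 Seeds sown in sandy loam and covered with soil; compounds formulated as WP or EC were sprayed onto the covering soil as aqueous suspension/emulsion with 0.5% additive at 600 l water/ha. Pots kept in greenhouse under optimum conditions; damage graded visually after ca. 3 weeks versus untreated controls (0–100%).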

In another assay the test system is Veronica persica (VERPE). The assay can be described thus: Herbicidal pre-emergence action, section A (Table A10). In outline: as §1
Assay [3] deals with Polygonum convolvulus (POLCO). The assay can be described thus: Herbicidal pre-emergence action, section C (Table C7). The settings on record: visual grading after ca. 3 weeks. The gist of the method:
as §2

Assay [4] deals with Echinochloa crus-galli (ECHCG). The assay can be described thus: Herbicidal post-emergence action, section E (Table E5). Particulars: application rate 320 g/ha, visual assessment ca. 3 weeks after spraying. An excerpt:
Seeds of mono- and dicotyledonous weed plants and crop plants were sown, in plastic or organic planting pots, in sandy loam, covered with soil and grown in a greenhouse under controlled growth conditions. 2 to 3 weeks after sowing, the test plants were sprayed in the single-leaf stage. The compounds according to the invention, formulated in form of wettable powders (WP) or as emulsifiable concentrates (EC), were sprayed onto the green plant parts as aqueous suspension or emulsion, with the addition of 0.5% of an additive, at an application rate of 600 l of water/ha (converted). The test plants were placed in the greenhouse for ca. 3 weeks under optimum growth conditions, and then the effect of the preparations was assessed visually in comparison with untreated controls (herbicidal effect in percent (%): 100% effect=plants have died off, 0% effect=as control plants).

In assay [5] the test system is Alopecurus myosuroides (ALOMY). The assay can be described thus: Herbicidal pre-emergence action, section C (Table C2). Particulars: visual grading after ca. 3 weeks vs untreated controls. The gist of the method:
as §2

Assay [6] deals with Echinochloa crus-galli (ECHCG). The assay can be described thus: Herbicidal post-emergence action, section B (Table B3). Particulars: rated visually after about 3 weeks. The gist of the method: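 Post-emergence greenhouse test. One-leaf stage; WP or EC plus 0.5% additive; 600 liters per hectare water volume; visual % rating at ~3 weeks relative to untreated plants.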
Assay [7] concerns Triticum aestivum (TRZAS). The assay can be described thus: Post-emergence effects on crop plants, section F (Table F2). The settings on record: application rate 80 g/ha; for post-emergence activity against TRZAS in %: crop plant damage. In outline: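 Crop seeds were sown in sandy loam in pots and greenhouse-grown; at the single-leaf stage, 2 to 3 weeks after sowing, plants were sprayed with WP or EC formulations plus 0.5% additive at 600 l water/ha, 320 g/ha or below. Damage was scored visually about 3 weeks later versus untreated controls (0–100%).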

For the next assay, the system named is Setaria viridis (SETVI). The assay can be described thus: Herbicidal pre-emergence action, section C (Table C8). Particulars: visual grading after ca. 3 weeks. In outline: as §2
Assay [8] concerns Amaranthus retroflexus (AMARE). The assay can be described thus: Herbicidal pre-emergence action, section C (Table C11). The settings on record: application rate 80 g/ha, visual grading after ca. 3 weeks. The gist of the method: as §2
The next assay concerns Kochia scoparia (KCHSC). In words: Herbicidal pre-emergence action, section A (Table A4). Particulars: visual grading after ca. 3 weeks vs untreated controls. In outline:
as §1

The values below come from patent US20240381872A1, “SUBSTITUTED 2,3-DIHYDRO[1,3]THIAZOLO[4,5-B]PYRIDINES, SALTS THEREOF AND THEIR USE AS HERBICIDALLY ACTIVE SUBSTANCES” (BAYER AKTIENGESELLSCHAFT, priority 2021, published 2024).

As for `Cc1cc2c(nc1-c1ccccc1F)N(C(=O)C13CCCC1C(Cl)=NO3)CS2` (centres unmarked) [Example I-104], the “pre-emergence activity against ALOMY in %” value in assay [1] (application rate 320 g/ha) worked out at 90%; in [5] (application rate 320 g/ha) it was 100%. Moreover, in assay [2] (application rate 80 g/ha), the “pre-emergence activity against DIGSA in %” value was 100%. For the same compound, the “pre-emergence activity against VERPE in %” value with Veronica persica (VERPE) (application rate 1280 g/ha) was 90%. Besides, the “pre-emergence activity against POLCO in %” value in assay [3] (application rate 80 g/ha) is listed as 80%. The “post-emergence activity against ECHCG in %” value in [4] was determined as 80%; in assay [6] (application rate 320 g/ha), 90%. Also, the “post-emergence activity against TRZAS in %” value in [7] was determined as 0%. In the assay on Setaria viridis (SETVI) (application rate 80 g/ha), the “pre-emergence activity against SETVI in %” value is 100%. Moreover, the “pre-emergence activity against AMARE in %” value in assay [8] is on record as 80%. In the assay on Kochia scoparia (KCHSC) (application rate 320 g/ha), the “pre-emergence activity against KCHSC in %” value turned out to be 90%.
As for `Cc1cc2c(nc1-c1cccc(F)c1F)NCS2` [Example I-029, 5-(2,3-difluorophenyl)-6-methyl-2,3-dihydro[1,3]thiazolo[4,5-b]pyridine], the pest or weed control at 1280 g/ha was found to be 90% in [1] (Alopecurus myosuroides, pre-emergence, 504 h, application rate 1280 g/ha, read-out: pre-emergence activity against ALOMY in %); 90% in the assay on Veronica persica (VERPE) (Veronica persica, 504 h, application rate 1280 g/ha, read-out: pre-emergence activity against VERPE in %); 90% in assay [6] (Echinochloa crus-galli, 504 h, application rate 1280 g/ha, read-out: post-emergence activity against ECHCG in %). Besides, the pest or weed control at 80 g/ha in [2] (Digitaria sanguinalis, pre-emergence, 504 h, application rate 80 g/ha, read-out: pre-emergence activity against DIGSA in %) was 90%; in assay [5] (Alopecurus myosuroides, pre-emergence, 504 h, application rate 80 g/ha, read-out: pre-emergence activity against ALOMY in %), 100%; in the assay on Setaria viridis (SETVI) (Setaria viridis, pre-emergence, 504 h, application rate 80 g/ha, read-out: pre-emergence activity against SETVI in %) it was 100%; in [8] (Amaranthus retroflexus, pre-emergence, 504 h, read-out: pre-emergence activity against AMARE in %) it was 80%. Besides, the pest or weed control at 320 g/ha in assay [3] (Fallopia convolvulus, pre-emergence, 504 h, application rate 320 g/ha, read-out: pre-emergence activity against POLCO in %) came out at 80%; in assay [4] (Echinochloa crus-galli, 504 h, read-out: post-emergence activity against ECHCG in %), 80%; in the assay on Kochia scoparia (KCHSC) (Bassia scoparia, pre-emergence, 504 h, application rate 320 g/ha, read-out: pre-emergence activity against KCHSC in %), 100%. Also, the percent crop plant damage (wheat, post-emergence) at 80 g/ha in assay [7] (Triticum aestivum, 504 h, read-out: post-emergence activity against TRZAS in %) was determined as 10%.
Turning to `CC1(C(=O)N2CSc3cc(Br)c(-c4ccccc4)nc32)CC(Cl)=NO1` (centres unmarked) [Example I-139], the “pre-emergence activity against ALOMY in %” value stood at 90% in assay [1] (application rate 1280 g/ha) and 80% in assay [5] (application rate 320 g/ha). Further, the “pre-emergence activity against DIGSA in %” value in [2] (application rate 320 g/ha) worked out at 100%. For the same compound, the “pre-emergence activity against VERPE in %” value in the assay with Veronica persica (VERPE) (application rate 1280 g/ha) came to 90%. Besides, the “pre-emergence activity against POLCO in %” value in [3] (application rate 320 g/ha) stood at 80%. The “post-emergence activity against ECHCG in %” value in [4] and in [6] (application rate 1280 g/ha) was 90% throughout. Besides, the “post-emergence activity against TRZAS in %” value in [7] amounted to 0%. In addition, the “pre-emergence activity against SETVI in %” value with Setaria viridis (SETVI) (application rate 320 g/ha) stood at 100%. Further, the “pre-emergence activity against AMARE in %” value in [8] worked out at 90%. The “pre-emergence activity against KCHSC in %” value in the assay with Kochia scoparia (KCHSC) (application rate 1280 g/ha) stood at 90%.
Turning to `Cc1ccccc1-c1nc2c(cc1C)SCN2C(=O)C1(C)CC(Cl)=NO1` (centres unmarked) [Example I-137], the “pre-emergence activity against ALOMY in %” value in assay [1] (application rate 320 g/ha) was determined as 90%; in assay [5] (application rate 80 g/ha) it was 80%. Also, in assay [2] (application rate 320 g/ha), the “pre-emergence activity against DIGSA in %” value stood at 100%. Also, the “pre-emergence activity against VERPE in %” value with Veronica persica (VERPE) (application rate 320 g/ha) is 90%. Moreover, the “pre-emergence activity against POLCO in %” value in assay [3] (application rate 320 g/ha) was found to be 80%. Besides, the “post-emergence activity against ECHCG in %” value in [4] and in assay [6] (application rate 320 g/ha) was 90% each time. Besides, the “post-emergence activity against TRZAS in %” value in assay [7] is on record as 0%. The “pre-emergence activity against SETVI in %” value with Setaria viridis (SETVI) (application rate 80 g/ha) amounted to 100%. Further, the “pre-emergence activity against AMARE in %” value in [8] is 90%. Moreover, the “pre-emergence activity against KCHSC in %” value in the assay on Kochia scoparia (KCHSC) (application rate 320 g/ha) was determined as 90%.
